The results in this text go back to ChEMBL document CHEMBL2380255, “Dual targeting of adenosine A(2A) receptors and monoamine oxidase B by 4H-3,1-benzothiazin-4-ones” (J Med Chem, 2013).

Series [1] addresses T1, Amine oxidase [flavin-containing] B (Homo sapiens, UniProt P27338).
T1 sequence (P27338 whole entry): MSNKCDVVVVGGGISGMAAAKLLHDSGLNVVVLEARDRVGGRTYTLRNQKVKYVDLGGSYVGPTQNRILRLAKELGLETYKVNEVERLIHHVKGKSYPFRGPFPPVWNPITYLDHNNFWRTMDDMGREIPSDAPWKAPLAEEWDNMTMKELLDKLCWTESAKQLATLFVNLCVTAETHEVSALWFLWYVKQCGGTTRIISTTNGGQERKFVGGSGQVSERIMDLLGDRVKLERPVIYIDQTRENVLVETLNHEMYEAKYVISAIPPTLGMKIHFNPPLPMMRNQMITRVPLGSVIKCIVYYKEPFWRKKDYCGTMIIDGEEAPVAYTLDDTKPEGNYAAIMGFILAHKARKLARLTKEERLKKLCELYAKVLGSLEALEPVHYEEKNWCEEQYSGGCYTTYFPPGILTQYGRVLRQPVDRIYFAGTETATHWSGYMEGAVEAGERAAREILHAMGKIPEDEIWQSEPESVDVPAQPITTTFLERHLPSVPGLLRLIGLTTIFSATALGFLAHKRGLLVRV
The series is described as follows: Ratio of selegiline IC50 to compound IC50 for recombinant human MAO-B.

Series [2] concerns the target T2, Adenosine receptor A2b (Homo sapiens, UniProt P29275).
T2 sequence (P29275 whole entry): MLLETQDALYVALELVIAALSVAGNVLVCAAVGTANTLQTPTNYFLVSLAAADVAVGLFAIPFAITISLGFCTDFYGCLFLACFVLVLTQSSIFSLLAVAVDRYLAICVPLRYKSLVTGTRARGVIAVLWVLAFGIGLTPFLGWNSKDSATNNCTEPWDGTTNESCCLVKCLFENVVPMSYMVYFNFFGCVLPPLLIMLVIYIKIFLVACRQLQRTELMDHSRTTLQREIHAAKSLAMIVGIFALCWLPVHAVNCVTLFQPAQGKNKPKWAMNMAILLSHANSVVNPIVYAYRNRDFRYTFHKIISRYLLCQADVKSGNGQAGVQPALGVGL
The series is described as follows: Displacement of [3H]PSB-603 from human recombinant adenosine A2B receptor expressed in CHO cells after 75 mins by liquid scintillation counting analysis. It counts as cell-based. Background: In a radioligand displacement assay an active substance lowers the binding of a labelled ligand.

Series [3] deals with T3, Amine oxidase [flavin-containing] B (Rattus norvegicus, UniProt P19643).
T3 sequence (P19643 whole entry): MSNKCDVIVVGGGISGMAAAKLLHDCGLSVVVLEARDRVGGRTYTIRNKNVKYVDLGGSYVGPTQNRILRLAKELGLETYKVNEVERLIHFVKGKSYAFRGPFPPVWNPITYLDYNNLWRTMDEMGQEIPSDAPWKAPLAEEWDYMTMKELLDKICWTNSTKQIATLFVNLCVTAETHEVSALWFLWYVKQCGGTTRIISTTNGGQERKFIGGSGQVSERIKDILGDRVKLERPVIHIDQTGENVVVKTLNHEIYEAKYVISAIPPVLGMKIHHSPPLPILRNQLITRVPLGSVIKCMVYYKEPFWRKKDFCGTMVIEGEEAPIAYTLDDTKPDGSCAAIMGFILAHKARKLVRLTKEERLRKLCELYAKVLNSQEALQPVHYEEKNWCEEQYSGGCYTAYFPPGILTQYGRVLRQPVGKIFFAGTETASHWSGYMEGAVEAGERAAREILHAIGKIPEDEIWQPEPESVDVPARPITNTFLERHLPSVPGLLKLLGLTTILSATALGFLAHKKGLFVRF
The series is described as follows: Inhibition of MAO-B in mitochondria-enriched Sprague-Dawley rat liver fractions using p-tyramine as substrate incubated for 30 mins prior to substrate addition measured for 45 mins by amplex red reagent-based microplate fluorescence reader analysis.

Series [4] has as its target T4, Adenosine receptor A3 (Homo sapiens, UniProt P0DMS8).
T4 sequence (P0DMS8 whole entry): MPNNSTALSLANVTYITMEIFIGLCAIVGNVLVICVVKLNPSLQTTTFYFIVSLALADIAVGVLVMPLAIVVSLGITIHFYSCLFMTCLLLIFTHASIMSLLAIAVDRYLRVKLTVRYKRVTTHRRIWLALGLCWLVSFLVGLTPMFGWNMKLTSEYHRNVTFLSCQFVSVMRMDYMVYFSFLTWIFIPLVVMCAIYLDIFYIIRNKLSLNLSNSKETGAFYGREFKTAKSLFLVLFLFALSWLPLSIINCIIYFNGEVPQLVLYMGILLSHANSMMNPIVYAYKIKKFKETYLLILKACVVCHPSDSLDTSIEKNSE
The series is described as follows: Displacement of [3H]PSB-11 from human recombinant adenosine A3 receptor expressed in CHO cells after 60 mins by liquid scintillation counting analysis. It counts as cell-based.

Series [5] has as its target T5, Adenosine receptor A1 (Rattus norvegicus, UniProt P25099).
T5 sequence (P25099 whole entry): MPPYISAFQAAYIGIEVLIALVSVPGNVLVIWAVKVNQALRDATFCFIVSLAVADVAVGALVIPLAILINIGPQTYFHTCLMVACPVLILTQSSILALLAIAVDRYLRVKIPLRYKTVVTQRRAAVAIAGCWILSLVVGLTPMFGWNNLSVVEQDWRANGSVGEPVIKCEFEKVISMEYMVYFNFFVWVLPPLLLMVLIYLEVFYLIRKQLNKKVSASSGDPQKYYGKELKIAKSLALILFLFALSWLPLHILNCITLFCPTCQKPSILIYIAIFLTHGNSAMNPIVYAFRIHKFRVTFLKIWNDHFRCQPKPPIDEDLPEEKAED
The series is described as follows: Displacement of [3H]CCPA from adenosine A1 receptor in rat brain cortical membranes after 90 mins by liquid scintillation counting analysis. In kind it is cell membranes, Membrane.

Series [6] deals with Adenosine receptor A2a (Rattus norvegicus, UniProt P30543). Nature of the series: Displacement of [3H]MSX2 from adenosine A2A receptor in rat brain striatal membranes after 30 mins by liquid scintillation counting analysis. It counts as cell membranes, Membrane.
Series [7] in a line: Selectivity ratio of IC50 for MAO-B in mitochondria-enriched Sprague-Dawley rat liver fractions to IC50 for recombinant human MAO-B.
Series [8] deals with T1, Amine oxidase [flavin-containing] B. The series is described as follows: Inhibition of recombinant human MAO-B expressed in baculovirus-infected insect cells using p-tyramine as substrate incubated for 30 mins prior to substrate addition measured for 45 mins by amplex red reagent-based microplate fluorescence reader analysis. In kind it is cell-based.
A short description of series [9]: Stability of the compound in DMSO at 1 mg/ml under daylight condition at 20 degC after 24 hrs by LC-MS analysis. In kind it is physicochemical.
The target in series [10] is T6, Adenosine receptor A1 (Homo sapiens, UniProt P30542).
T6 sequence (P30542 whole entry): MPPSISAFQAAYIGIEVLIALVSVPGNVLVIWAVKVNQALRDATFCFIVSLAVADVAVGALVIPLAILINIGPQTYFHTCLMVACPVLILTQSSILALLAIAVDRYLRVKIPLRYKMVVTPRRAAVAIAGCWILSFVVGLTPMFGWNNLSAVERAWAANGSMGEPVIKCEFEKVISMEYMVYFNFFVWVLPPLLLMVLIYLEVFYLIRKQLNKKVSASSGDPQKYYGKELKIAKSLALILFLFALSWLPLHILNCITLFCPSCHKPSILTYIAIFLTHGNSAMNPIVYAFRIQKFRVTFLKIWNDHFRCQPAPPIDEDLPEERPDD
Nature of the series: Displacement of [3H]CCPA from human recombinant adenosine A1 receptor expressed in CHO cells after 90 mins by liquid scintillation counting analysis. It counts as cell-based.

In series [11] the target is T7, Adenosine receptor A2a (Homo sapiens, UniProt P29274). The series is described as follows: Antagonist activity at human adenosine A2A receptor expressed in CHO cells assessed as decrease in cAMP accumulation up to 20 uM preincubated for 10 mins measured after 60 mins by liquid scintillation counting analysis in presence of [3H]cAMP. In kind it is functional, cell-based. (In general: cAMP levels reflect the balance of adenylyl cyclase and phosphodiesterase activity.)

For series [12], the species on record is Homo sapiens. The series is described as follows: Selectivity ratio of Ki for human recombinant adenosine A1 receptor to Ki for human recombinant adenosine A2A receptor.
For series [13], the species on record is Homo sapiens. The series is described as follows: Selectivity ratio of Ki for human recombinant adenosine A3 receptor to Ki for human recombinant adenosine A2A receptor.
The species named for series [14] is Homo sapiens. Nature of the series: Selectivity ratio of Ki for human recombinant adenosine A2B receptor to Ki for human recombinant adenosine A2A receptor.
For series [15], the target named is T1, Amine oxidase [flavin-containing] B. Nature of the series: Reversible inhibition of human MAO-B using p-tyramine as substrate at IC80 incubated for 22 mins followed by substrate addition measured for 5 hrs by fluorescence assay.
In series [16] the target is T7, Adenosine receptor A2a. Nature of the series: Displacement of [3H]MSX2 from human recombinant adenosine A2A receptor expressed in CHO cells after 30 mins by liquid scintillation counting analysis. In kind it is cell-based.
In series [17] the target is T1, Amine oxidase [flavin-containing] B. The series is described as follows: Competitive inhibition of human MAO-B using p-tyramine as substrate at 50 to 300 nM using p-tyramine as substrate incubated for 30 mins prior to substrate addition measured for 45 mins by Lineweaver-burk plot analysis. The settings on record: 0.75 h.
A short description of series [18]: Stability of the compound in DMSO at 1 mg/ml under daylight condition at 20 degC after 7 days by LC-MS analysis. In kind it is physicochemical. The settings on record: 168 h.
For series [19], the target named is T7, Adenosine receptor A2a. The series is described as follows: Antagonist activity at human adenosine A2A receptor expressed in CHO cells assessed as decrease in NECA-induced cAMP accumulation up to 20 uM incubated for 10 mins followed by NECA induction for 15 mins measured after 60 mins by liquid scintillation counting analysis in presence of [3H]cAMP. In kind it is functional, cell-based.

Series [20] concerns the target T6, Adenosine receptor A1. Nature of the series: Displacement of [3H]CCPA from human recombinant adenosine A1 receptor expressed in CHO cells.
Series [21] deals with T4, Adenosine receptor A3. Nature of the series: Displacement of [3H]PSB-11 from human recombinant adenosine A3 receptor expressed in CHO cells. In kind it is cell-based.

The source made the active and inactive calls. No cut-off for these calls is given here. A value given as a limit tells only on which side of the number the result lay.

As usually defined, the Ki is a measure of affinity in units of concentration, obtained from inhibition or displacement. In general, IC50 refers to the concentration at which inhibition is half-maximal.

T7 sequence (P29274 whole entry): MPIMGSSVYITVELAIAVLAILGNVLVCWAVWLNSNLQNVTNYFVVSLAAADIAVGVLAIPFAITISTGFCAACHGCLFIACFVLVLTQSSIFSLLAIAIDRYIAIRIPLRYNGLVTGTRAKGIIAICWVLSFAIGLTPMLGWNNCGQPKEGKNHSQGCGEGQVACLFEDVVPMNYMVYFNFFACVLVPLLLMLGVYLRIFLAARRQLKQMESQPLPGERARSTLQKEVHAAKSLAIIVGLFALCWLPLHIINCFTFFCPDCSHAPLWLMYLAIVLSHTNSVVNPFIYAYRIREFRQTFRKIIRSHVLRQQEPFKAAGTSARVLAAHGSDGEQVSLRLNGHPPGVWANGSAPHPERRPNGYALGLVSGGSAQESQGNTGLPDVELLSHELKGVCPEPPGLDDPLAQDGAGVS
Adenosine receptor A2a (Rattus norvegicus, UniProt P30543), sequence (P30543 whole entry): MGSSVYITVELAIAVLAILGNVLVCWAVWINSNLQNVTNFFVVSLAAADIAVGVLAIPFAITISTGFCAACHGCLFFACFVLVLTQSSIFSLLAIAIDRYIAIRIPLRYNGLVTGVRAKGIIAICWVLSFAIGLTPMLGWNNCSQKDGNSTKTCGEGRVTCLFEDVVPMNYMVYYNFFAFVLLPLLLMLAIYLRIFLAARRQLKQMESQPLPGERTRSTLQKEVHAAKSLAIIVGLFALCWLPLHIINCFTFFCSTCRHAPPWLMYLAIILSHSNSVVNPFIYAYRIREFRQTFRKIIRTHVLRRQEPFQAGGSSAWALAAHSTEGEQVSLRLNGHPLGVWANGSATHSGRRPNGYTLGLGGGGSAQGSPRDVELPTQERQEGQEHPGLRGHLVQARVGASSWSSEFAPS

For `O=C(COc1cccc(Cl)c1)Nc1nc2ccccc2c(=O)s1`, the “Ratio IC50” value in [1] came out at 4; in series [7] it was 400. Also, the Ki in series [2] is over 1 µM; in [4] it was over 1 µM; in series [5] it was over 10 µM; in series [6], over 10 µM. Besides, the IC50 amounted to 0.661 µM in [3] and 0.00163 µM in series [8].
In [3], `Cn1c(=O)c2c(nc(/C=C/c3cccc(Cl)c3)n2C)n(C)c1=O` showed an IC50 of 0.0385 µM. Moreover, the results for the Ki in [4] and in series [10] were over 1 µM and over 10 µM, respectively. For the same molecule, the Stability result in [9] is given as “Unstable”.
Take `O=C(CCCc1ccccc1)Nc1nc2ccccc2c(=O)s1`: the result in series [11] and in series [19] was Active. The Ratio Ki is 63 in [12], over 25 in series [13] and over 25 in series [14]. The Ki in [2] is over 1 µM; in series [4], over 1 µM; in series [5], 0.229 µM; in series [16], 0.0395 µM; in [6], 0.423 µM; in [10], 2.5 µM. In addition, the IC50 was found to be 0.186 µM in series [3] and 0.0349 µM in [8]. Besides, the “inhibition (INH)” value in series [15] and in series [17] was “Active” each time. Besides, the Stability result in series [18] was “Stable”. Also, the Ratio IC50 in [7] turned out to be 1.4.
Regarding `CCn1c(=O)c2c(nc(/C=C/c3ccc(OC)c(OC)c3)n2C)n(CC)c1=O` [ISTRADEFYLLINE], the Ki was 2.83 µM in series [20] and over 3 µM in [21].
